# Tested on: Peyer's patch cells
# Test: Production of IgA, IgG and cytokines by Peyer's patch cells of mice fed lactosucrose (Experiment 3)
# Format: in vivo
# Conditions: for IL-10 produced by Peyer's patch cells / IFN-γ produced by Peyer's patch cells / IL-4 produced by Peyer's patch cells / IL-6 produced by Peyer's patch cells / IgA produced by Peyer's patch cells / IgG produced by Peyer's patch cells / TGF-β produced by Peyer's patch cells: four weeks
# Procedure: In order to investigate what type of immunopathologically-mediated tissue exerts the enhancing effect on gut immunity, the amounts of IgA, IgG, and various cytokines were measured. Similarly as in Experiment 1, female BALB/c mice (six weeks old) were preliminary reared for one week on “AIN-93G”, the same standard purified diet as used in Experiment 1. Successively, “LS-90P”, a saccharide composition comprising 91.8% (w/w), on a dry solid basis, of lactosucrose commercialized by ENSUIKO Sugar Refining Co., Ltd., Tokyo, Japan, was incorporated into the above purified diet, in which corn starch equal to the amount of the saccharide composition comprising lactosucrose had been removed, to give a lactosucrose content of 2% (w/w) or 5% (w/w), and five mice/group were allowed to ingest the resulting test diet freely. Mice, allowed to ingest “AIN-93G”, as the standard purified diet, were used as control. At four weeks after starting the administration of the test diet, Peyer's patch and intestinal lymph nodes were respectively removed from the mice and cut using a scissor. Then, the resultants were respectively treated in 0.2% (w/v) aqueous collagenase solution at 37° C. for 30 min, and filtrated using a cell strainer to obtain cell suspensions. Each cell suspension was centrifuged to collect cells and the resulting cells were suspended into a 45% (v/v) solution of “PERCOLL”, commercialized by GE Healthcare, to make into a cell suspension. Each resulting suspension was successively placed on a 75% (v/v) “PERCOLL” solution and centrifuged at 1,000×g for 10 min. Cells in a boundary phase between 45% (v/v) and 75% (v/v) “PERCOLL” solution were collected and suspended in RPMI1640 medium comprising 10% FCS and 10 mM HEPES, and the cell concentration was adjusted to 1×10^6 cells/ml. The resulting cell suspension was placed in a 24-well plate to give one ml/well each. Then, 2 μg/ml of Concanavaline A (Con A) as a stimulator to T-cell or 10 μg/ml of lipopolysaccharide (LPS) as a stimulator to B-cell and macrophage cell was admixed with the cell suspension, and then the cells were cultured at 37° C. for 48 hours using 5% (v/v) carbon dioxide gas. A culture supernatant was collected from each well, and the amounts of IgA, IgG, IFN-γ, interleukin-4 (IL-4), IL-6, interleukin-10 (IL-10), and TGF-β were measured by ELISA using an anti-mouse IgA antibody, anti-mouse IgG antibody, anti-mouse IFN-γ antibody (commercialized by Pepro Tech EC. Ltd.), anti-mouse IL-4 antibody (commercialized by R&D Systems), anti-mouse IL-6 antibody (commercialized by R&D Systems), anti-mouse IL-10 antibody (commercialized by R&D Systems), and anti-mouse TGF-β antibody (commercialized by Promega Co., Wisconsin, USA), and the average values of those from five mice were determined. The results for Peyer's patch cells and intestinal lymph node cells are respectively in Tables 3 and 4. The percentages in parentheses in the tables mean a relative value to the amount of IgA, IgG, IFN-γ, IL-4, IL-6, IL-10 or TGF-β produced by Peyer's patch cells or intestinal lymph node cells from the control mice.
# [1] = Lactosucrose 2% (w/w) diet, LPS
# [2] = Lactosucrose 5% (w/w) diet, Con A
# [3] = Lactosucrose 5% (w/w) diet, LPS
smiles,measurement,setting,value
"OC[C@H]1O[C@@H](O[C@H]2[C@H](O)[C@@H](O)[C@@H](O[C@]3(CO)O[C@H](CO)[C@@H](O)[C@@H]3O)O[C@@H]2CO)[C@H](O)[C@@H](O)[C@H]1O [Lactosucrose, β-D-galactosyl-(1,4)-α-D-glucosyl-(1,2)-β-D-fructoside]",IL-10 produced by Peyer's patch cells,"Lactosucrose 2% (w/w) diet, Con A, DL: Detection limit",Below DL*
same,IFN-γ produced by Peyer's patch cells,[1],1.2 ± 0.44 ng/mL
same,IL-4 produced by Peyer's patch cells,[1],15 ± 1.6 pg/mL
same,IL-6 produced by Peyer's patch cells,[1],250 ± 27 pg/mL
same,IL-10 produced by Peyer's patch cells,[1],200 ± 57 pg/mL
same,IgA produced by Peyer's patch cells,[1],1.9 ± 1.8 µg/mL
same,IgG produced by Peyer's patch cells,[1],110 ± 90 ng/mL
same,TGF-β produced by Peyer's patch cells,[1],1.3 ± 0.20 ng/mL
same,"IFN-γ produced by Peyer's patch cells, relative value to control","Lactosucrose 2% (w/w), Con A",(100%)
same,"IL-4 produced by Peyer's patch cells, relative value to control","Lactosucrose 2% (w/w), Con A",(105%)
same,"IL-6 produced by Peyer's patch cells, relative value to control","Lactosucrose 2% (w/w), Con A",(106%)
same,"IgA produced by Peyer's patch cells, relative value to control","Lactosucrose 2% (w/w), Con A",(127%)
same,"IgG produced by Peyer's patch cells, relative value to control","Lactosucrose 2% (w/w), Con A",(151%)
same,"TGF-β produced by Peyer's patch cells, relative value to control","Lactosucrose 2% (w/w), Con A",(133%)
same,"IFN-γ produced by Peyer's patch cells, relative value to control","Lactosucrose 2% (w/w), LPS",(146%)
same,"IL-4 produced by Peyer's patch cells, relative value to control","Lactosucrose 2% (w/w), LPS",(107%)
same,"IL-6 produced by Peyer's patch cells, relative value to control","Lactosucrose 2% (w/w), LPS",(114%)
same,"IL-10 produced by Peyer's patch cells, relative value to control","Lactosucrose 2% (w/w), LPS",(95%)
same,"IgA produced by Peyer's patch cells, relative value to control","Lactosucrose 2% (w/w), LPS",(216%)
same,"IgG produced by Peyer's patch cells, relative value to control","Lactosucrose 2% (w/w), LPS",(244%)
same,"TGF-β produced by Peyer's patch cells, relative value to control","Lactosucrose 2% (w/w), LPS",(100%)
same,IFN-γ produced by Peyer's patch cells,[2],21 ± 13 ng/mL
same,IL-4 produced by Peyer's patch cells,[2],20 ± 0.74 pg/mL
same,IL-6 produced by Peyer's patch cells,[2],84 ± 39 pg/mL
same,IgA produced by Peyer's patch cells,[2],4.5 ± 2.6 µg/mL
same,IgG produced by Peyer's patch cells,[2],270 ± 120 ng/mL
same,TGF-β produced by Peyer's patch cells,[2],0.66 ± 0.13 ng/mL
same,IL-10 produced by Peyer's patch cells,"Lactosucrose 5% (w/w) diet, Con A, DL: Detection limit",Below DL*
same,IFN-γ produced by Peyer's patch cells,[3],3.0 ± 2.1 ng/mL
same,IL-4 produced by Peyer's patch cells,[3],14 ± 0.88 pg/mL
same,IL-6 produced by Peyer's patch cells,[3],470 ± 250 pg/mL
same,IL-10 produced by Peyer's patch cells,[3],160 ± 56 pg/mL
same,IgA produced by Peyer's patch cells,[3],7.0 ± 4.0 µg/mL
same,IgG produced by Peyer's patch cells,[3],370 ± 150 ng/mL
same,TGF-β produced by Peyer's patch cells,[3],1.2 ± 0.090 ng/mL
same,"IFN-γ produced by Peyer's patch cells, relative value to control","Lactosucrose 5% (w/w), Con A",(191%)
same,"IL-4 produced by Peyer's patch cells, relative value to control","Lactosucrose 5% (w/w), Con A",(95%)
same,"IL-6 produced by Peyer's patch cells, relative value to control","Lactosucrose 5% (w/w), Con A",(255%)
same,"IgA produced by Peyer's patch cells, relative value to control","Lactosucrose 5% (w/w), Con A",(300%)
same,"IgG produced by Peyer's patch cells, relative value to control","Lactosucrose 5% (w/w), Con A",(370%)
same,"TGF-β produced by Peyer's patch cells, relative value to control","Lactosucrose 5% (w/w), Con A",(220%)
same,"IFN-γ produced by Peyer's patch cells, relative value to control","Lactosucrose 5% (w/w), LPS",(366%)
same,"IL-4 produced by Peyer's patch cells, relative value to control","Lactosucrose 5% (w/w), LPS",(100%)
same,"IL-6 produced by Peyer's patch cells, relative value to control","Lactosucrose 5% (w/w), LPS",(214%)
same,"IL-10 produced by Peyer's patch cells, relative value to control","Lactosucrose 5% (w/w), LPS",(76%)
same,"IgA produced by Peyer's patch cells, relative value to control","Lactosucrose 5% (w/w), LPS",(795%)
same,"IgG produced by Peyer's patch cells, relative value to control","Lactosucrose 5% (w/w), LPS",(822%)
same,"TGF-β produced by Peyer's patch cells, relative value to control","Lactosucrose 5% (w/w), LPS",(92%)

# Source: patent US20090270342A1, “IMMUNOREGULATORY AGENT” (priority 2006, published 2009)
